The target in one test is T1, pancreatic lipase (Homo sapiens, UniProt P16233).
T1 sequence (P16233 17-465): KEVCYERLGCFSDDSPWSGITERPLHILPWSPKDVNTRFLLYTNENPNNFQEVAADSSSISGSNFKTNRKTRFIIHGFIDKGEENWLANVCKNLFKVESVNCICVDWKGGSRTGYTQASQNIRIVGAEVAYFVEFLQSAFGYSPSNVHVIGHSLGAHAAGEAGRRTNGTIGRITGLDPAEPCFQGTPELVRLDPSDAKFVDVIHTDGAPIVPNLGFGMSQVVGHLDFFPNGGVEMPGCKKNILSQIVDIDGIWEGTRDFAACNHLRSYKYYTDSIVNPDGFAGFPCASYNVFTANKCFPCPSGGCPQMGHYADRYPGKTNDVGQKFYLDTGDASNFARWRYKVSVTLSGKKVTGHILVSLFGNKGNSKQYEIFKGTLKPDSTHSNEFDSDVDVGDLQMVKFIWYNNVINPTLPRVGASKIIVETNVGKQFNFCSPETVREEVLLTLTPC
Briefly: In vitro lipase inhibition assay. It is filed as biochemical. On the procedure:
(§1) In cholinesterase activity measurements, the method reported by Karagecili and coworkers was used with minor modifications.^[ [23] ^] Here, acetylchoiniodate was used as a substrate for both enzymes. Lipase enzyme activity measurement was performed according to the method reported by Bulut.^[ [24] ^] In inhibition studies, measurements were made at at least five different concentrations of the molecules synthesized. %activity values were calculated by accepting enzyme activity measurements without inhibitor as 100%. Then, molecule concentrations were plotted against Activity% values.

Test [1] concerns the target acetylcholinesterase (AChE) (Homo sapiens, UniProt P22303). Briefly: biochemical. The following applies: at least five concentrations. The procedure:
as §1

Test [2] has as its target butyrylcholinesterase (BChE) (Homo sapiens, UniProt P06276). Put plainly: biochemical. The following applies: at least five concentrations. The procedure:
as §1

Structures are written as SMILES.

Chain of acetylcholinesterase (AChE) (P22303 32-614, species assumed): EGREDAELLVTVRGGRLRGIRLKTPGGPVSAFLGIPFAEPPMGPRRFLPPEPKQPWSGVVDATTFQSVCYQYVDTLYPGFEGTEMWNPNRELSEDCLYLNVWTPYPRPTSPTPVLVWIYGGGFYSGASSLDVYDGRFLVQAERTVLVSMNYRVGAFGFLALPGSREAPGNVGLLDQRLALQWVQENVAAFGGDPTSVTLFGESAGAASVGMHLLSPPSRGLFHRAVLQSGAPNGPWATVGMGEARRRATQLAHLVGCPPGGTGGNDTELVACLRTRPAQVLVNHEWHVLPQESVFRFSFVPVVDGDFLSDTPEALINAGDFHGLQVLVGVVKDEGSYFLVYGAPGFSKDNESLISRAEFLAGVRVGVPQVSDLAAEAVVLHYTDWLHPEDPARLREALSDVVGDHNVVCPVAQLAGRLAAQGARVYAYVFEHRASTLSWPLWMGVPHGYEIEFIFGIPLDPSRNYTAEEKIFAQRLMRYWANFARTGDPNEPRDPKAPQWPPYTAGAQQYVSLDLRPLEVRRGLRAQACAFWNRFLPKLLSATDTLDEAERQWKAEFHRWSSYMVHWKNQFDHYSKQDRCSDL
Chain of butyrylcholinesterase (BChE) (P06276 29-602, species assumed): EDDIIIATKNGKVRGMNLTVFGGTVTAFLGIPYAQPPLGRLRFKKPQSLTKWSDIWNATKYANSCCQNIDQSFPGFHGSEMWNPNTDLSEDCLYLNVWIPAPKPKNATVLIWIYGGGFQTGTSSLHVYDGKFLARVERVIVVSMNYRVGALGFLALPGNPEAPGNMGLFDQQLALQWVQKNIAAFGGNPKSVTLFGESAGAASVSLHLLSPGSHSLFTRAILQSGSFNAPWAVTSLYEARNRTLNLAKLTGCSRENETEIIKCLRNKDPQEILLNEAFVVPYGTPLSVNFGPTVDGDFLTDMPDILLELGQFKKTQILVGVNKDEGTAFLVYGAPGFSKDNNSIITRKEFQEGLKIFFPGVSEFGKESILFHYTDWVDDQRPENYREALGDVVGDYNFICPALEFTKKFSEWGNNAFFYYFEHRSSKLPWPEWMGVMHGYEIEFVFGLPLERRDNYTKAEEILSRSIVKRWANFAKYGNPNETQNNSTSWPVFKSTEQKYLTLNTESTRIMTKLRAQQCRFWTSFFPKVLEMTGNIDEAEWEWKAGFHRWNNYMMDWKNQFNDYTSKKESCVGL

Take `O=C(NCC1CCCCN1)c1ccnc(-c2cc(C(=O)NCC3CCCCN3)ccn2)c1` (stereo not drawn) [L2, N4,N4′‐bis(piperidin‐2‐ylmethyl)‐[2,2′‐bipyridine]‐4,4′‐dicarboxamide]: the IC50 (usually the concentration needed to halve the response being measured) against pancreatic lipase (at least five concentrations) was found to be 24.1 µM; in test [1], 10.2 µM; in test [2], 8.83 µM.
With `O=C(NCc1ccccn1)c1ccnc(-c2cc(C(=O)NCc3ccccn3)ccn2)c1` [L1, N4,N4′‐bis(pyridin‐2‐ylmethyl)‐[2,2′‐bipyridine]‐4,4′‐dicarboxamide], the “Effect on lipase in the concentration ranges studied” value on pancreatic lipase (no IC50 given in Table 5) is “did not show a linear effect”. Further, the IC50 in test [1] came to 173 µM; in test [2], 68.1 µM.

These data come from publication PMC12409821, “Synthesis and Characterization of Co(II), Cu(II), and Ni(II) Complexes of 2,2′‐Bipyridine‐4,4′‐Dicarboxamide Ligands: Antibacterial Evaluation Against Resistant Bacteria and Enzyme Inhibition” (ChemistryOpen, 2025).
